Consider 24 molecules from US20240285664A1, “LINE-1 INHIBITORS AS COGNITIVE ENHANCERS” (TRANSPOSON THERAPEUTICS, INC., priority 2021, published 2024).

“Also recorded” adds a separate entry of the source. Bounds are passed on as bounds.

The subject of the first experiment is human LINE-1. The experiment is described as follows: Human LINE-1 retrotransposition assay (HeLa cell-based dual-luciferase reporter). Particulars: HeLa cells, reporter plasmid pYX017, 72 h incubation, Firefly/Renilla luciferase; read-out: Human LINE-1 IC50 (μM), Human L1 activity inhibition. The protocol: Islatravir and other compounds were tested for inhibition of retrotransposition activity of human LINE-1 in HeLa cells according to the following procedure.
HeLa cervical cancer cells were cultivated at 37° C. in a humidified 5% CO2 incubator in Dulbecco's Modified Eagle's Medium (DMEM)—high glucose, with 4500 mg/L glucose, L-glutamine, sodium pyruvate and sodium bicarbonate (Sigma), supplemented with 10% of heat inactivated fetal bovine serum (Thermo Fisher).
Assays were performed using reporter plasmid pYX017 as described (Xie, et al., 2011) with several modifications. The reporter assay was performed in 96-well white optical bottom plates. HeLa cells were seeded in wells 24 h prior to transfection and compound treatment so that cells were approximately 30% confluent on the day of transfection. Different cell plating densities were tested and a density of 2×10^3 cells was determined to be optimal.
Compounds were resuspended in DMSO. Serial dilutions (1:3) were prepared in DMSO. Medium containing different concentrations of the compounds were prepared by adding 2 μl of the compound dilution to 1 ml of the culture medium. The final concentration of DMSO in the medium was 0.2%.
FuGENE® HD transfection reagent (Promega, E2311, Lot 382574 and Lot 397842) was used to transfect the plasmids into the cells. The transfection reagent: DNA mixture was prepared in OpiMEM (Thermo Fisher) according to manufacturer's instructions. Different ratios of transfection reagent to DNA were tested and a ratio of 3:1 was determined to be optimal. Culture medium was removed from the cells and discarded. The transfection reagent: DNA mixture (5 μl) was mixed with the compound containing medium (100 μl/well) and this was added onto the cells of each well. Cells were incubated at 37° C./5% C02 for different incubation time. A 72 h incubation time was determined to be optimal.
Luciferase reporter activity was quantified with the Dual-Luciferase® Reporter Assay System (Promega) according to manufacturer's instructions for multiwell plates except that cells were lysed directly on the multiwell plate with 30 μl of the passive lysis buffer (PLB) for 20 min at room temperature, with gentle shaking to ensure complete cell lysis.
Firefly and Renilla luciferase signals were measured using a SpectraMax i3x Multi-Mode Microplate Reader. Integration times of 100 ms and 10 ms were used to measure the Firefly and Renilla signals respectively. Relative L1 activity is calculated as Firefly/Renilla*1000 or Firefly/Renilla*10,000. Dose response inhibition data were fit to a four parameter logistic equation using non-linear regression (using Graphpad Prism 8), to determine IC50 values for each inhibitor.
In the case of `C[C@H](Cn1cnc2c(N)ncnc21)OCP(=O)(O)O` [Tenofovir], the IC50 (as a rule, the concentration that inhibits the measured activity by half) is 2.77 µM.

The experiment is the same for the next values; noted with them: HeLa cells, summary of Table 1.
As for `C#C[C@]1(CO)O[C@@H](n2cnc3c(N)nc(F)nc32)C[C@@H]1O` [Islatravir, 2′-deoxy-4′-ethynyl-2-fluoroadenosine], the “human LINE-1 inhibitor activity compared to the other reverse transcriptase inhibitors tested (in words)” value is reported as “unexpectedly better human LINE-1 inhibitor activity”.
Take `C#C[C@@]1(CO)C=C[C@H](n2cc(C)c(=O)[nH]c2=O)O1` [Censavudine, 4′-ethynylstavudine]: the “human LINE-1 inhibitor activity compared to the other reverse transcriptase inhibitors tested (in words)” value is on record as “unexpectedly better human LINE-1 inhibitor activity; also recorded: surprisingly potent”.

The experiment is the same for the next values; noted with them: HeLa cells, summary of Table 1; listed as islatravir.
Turning to `C#C[C@]1(CO)O[C@@H](n2cnc3c(N)nc(F)nc32)C[C@@H]1O` [Islatravir, 2′-deoxy-4′-ethynyl-2-fluoroadenosine], the “human LINE-1 inhibitor activity compared to the other reverse transcriptase inhibitors tested (in words)” value was “surprisingly potent”.

The same experiment, now with this note: Homo sapiens; HeLa cells, reporter plasmid pYX017, 72 h incubation, Firefly/Renilla luciferase; read-out: Human LINE-1 IC50 (μM), Human L1 activity inhibition.
Turning to `Cc1cn([C@H]2C=C[C@@H](CO)O2)c(=O)[nH]c1=O` [Stavudine], the IC50 was 0.75 µM.
For the molecule `C=C[C@]1(CO)O[C@@H](n2cnc3c(N)nc(F)nc32)C[C@@H]1O` [Cpd. No. 20], the IC50 turned out to be 0.011 µM.
Consider `Cc1nnc(C(=O)NC(C)(C)c2nc(C(=O)NCc3ccc(F)cc3)c(O)c(=O)n2C)o1` [Raltegravir potassium], for which the IC50 was over 9.86 µM.
As to `C[C@@H]1CCO[C@H]2Cn3cc(C(=O)NCc4ccc(F)cc4F)c(=O)c(O)c3C(=O)N12` [Dolutegravir sodium], the IC50 was over 9.38 µM.
In the case of `C#C[C@]1(CO)O[C@@H](n2cnc3c(N)ncnc32)C[C@@H]1O` [Cpd. No. 23], the IC50 is over 50 µM.
`Cc1cn([C@H]2C[C@H](N=[N+]=[N-])[C@@H](CO)O2)c(=O)[nH]c1=O` [Zidovudine]: the IC50 is 0.81 µM.
In the case of `C#C[C@]1(CO)O[C@@H](n2cc(F)c(N)nc2=O)C[C@@H]1O` [Cpd. No. 9], the IC50 is 0.0209 µM.
Same read-out and setting: the same measure for `C#C[C@]1(CO)O[C@@H](n2cnc3c(O)nc(N)nc32)C[C@@H]1O` [Cpd. No. 13]: 0.00051 µM; for `C#C[C@]1(CO)O[C@@H](n2cc(Br)c(O)nc2=O)C[C@@H]1O` [Cpd. No. 4]: 0.489 µM.
For `CC[C@]1(CO)O[C@@H](n2cc(C)c(=O)[nH]c2=O)C[C@@H]1O` [Cpd. No. 26], the IC50 came to 2 µM.
With `Nc1ccn([C@@H]2CS[C@H](CO)O2)c(=O)n1` [Lamivudine], the IC50 was 0.64 µM.
Still for that read-out and setting: the same measure for `Cc1cc(/C=C/C#N)cc(C)c1Nc1ccnc(Nc2ccc(C#N)cc2)n1` [Rilpivirine]: over 15.1 µM; for `CC(C)OC(=O)OCOP(=O)(CO[C@H](C)Cn1cnc2c(N)ncnc21)OCOC(=O)OC(C)C` [Tenofovir disoproxil]: 0.2 µM.
Regarding `O=C1Nc2ccc(Cl)cc2[C@@](C#CC2CC2)(C(F)(F)F)O1` [Efavirenz], the IC50 is over 0.25 µM.
Still for that read-out and setting: under `Cc1ccnc2c1NC(=O)c1cccnc1N2C1CC1` [Nevirapine] stands over 50 µM; under `C#C[C@@]1(CO)C=C[C@H](n2cc(C)c(=O)[nH]c2=O)O1` [Censavudine, 4′-ethynylstavudine], 0.07 µM; under `C#C[C@]1(CO)O[C@@H](n2cc(C)c(O)nc2=O)C[C@@H]1O` [Cpd. No. 2], 0.393 µM.
Take `CC[C@]1(CO)O[C@@H](n2cnc3c(O)nc(N)nc32)C[C@@H]1O` [Cpd. No. 27]: the IC50 worked out at 0.003 µM.
Still for that read-out and setting: under `C#C[C@]1(CO)O[C@@H](n2ccc(N)nc2=O)C[C@@H]1O` [Cpd. No. 7, 4-amino-1-((2R,4S,5R)-5-ethynyl-4-hydroxy-5 (hydroxymethyl)tetrahydrofuran-2-yl)pyrimidin-2(1H)-one] stands 0.0091 µM; under `O=C(NCc1c(F)cc(F)cc1F)c1cn2c(c(O)c1=O)C(=O)N1[C@H]3CC[C@H](C3)O[C@@H]1C2` [Bictegravir], over 12.4 µM.
Still for that read-out and setting: under `C=C[C@]1(CO)O[C@@H](n2ccc(N)nc2=O)C[C@@H]1O` [Cpd. No. 24] stands 0.008 µM.
Take `Nc1nc(=O)n([C@@H]2C=C[C@H](CO)O2)cc1F` [Elvucitabine]: the IC50 amounted to 0.09 µM.
